# Test system: PKB Ser473 phosphorylation in Rat1-myr-HA-p110 alpha cells
# Assay: Reverse protein array, PKB Ser473 phosphorylation in Rat1-myr-HA-p110 alpha cells
# Assay type: cell-based
# Conditions: Rattus norvegicus, 0.5 h, 30 minutes compound incubation, read-out: p-PKB/IC50_alpha
row,Structure (SMILES),IC50
1,"CNc1cc(-c2ccc3ncc4c(c3c2)n(-c2cccnc2C)c(=O)n4C)cnc1C [Example 2.32, 3-Methyl-8-(6-methyl-5-methylamino-pyridin-3-yl)-1-(2-methyl-pyridin-3-yl)-1,3-dihydro-imidazo[4,5-c]quinolin-2-one]",< 4.57 nM
2,"CNc1ccc(-c2ccc3ncc4c(c3c2)n(-c2ccc(F)nc2C)c(=O)n4C)cn1 [Example 7.4, 1-(6-Fluoro-2-methyl-pyridin-3-yl)-3-methyl-8-(6-methylamino-pyridin-3-yl)-1,3-dihydro-imidazo[4,5-c]quinolin-2-one]",7.18 nM
3,"Cn1c(=O)n(-c2cccnc2F)c2c3cc(-c4cnc(N)c(C(F)(F)F)c4)ccc3ncc21 [Example 6.2, 8-(6-Amino-5-trifluoromethyl-pyridin-3-yl)-1-(2-fluoro-pyridin-3-yl)-3-methyl-1,3-dihydro-imidazo[4,5-c]quinolin-2-one]",4.57 nM
4,"Cc1nc(F)ccc1-n1c(=O)n(C)c2cnc3ccc(-c4cnc(N)c(C(F)(F)F)c4)cc3c21 [Example 7.1, 8-(6-Amino-5-trifluoromethyl-pyridin-3-yl)-1-(6-fluoro-2-methyl-pyridin-3-yl)-3-methyl-1,3-dihydro-imidazo[4,5-c]quinolin-2-one]",11.8 nM
5,"Cc1ncccc1-n1c(=O)n(C)c2cnc3ccc(-c4cncc(NC(C)C)c4)cc3c21 [Example 2.24, 8-(5-Isopropylamino-pyridin-3-yl)-3-methyl-1-(2-methyl-pyridin-3-yl)-1,3-dihydro-imidazo[4,5-c]quinolin-2-one]",22.2 nM
6,"CNC(=O)c1ccc(-c2ccc3ncc4c(c3c2)n(-c2ncccc2C)c(=O)n4C)cc1 [Example 3.5, N-Methyl-4-[3-methyl-1-(3-methyl-pyridin-2-yl)-2-oxo-2,3-dihydro-1H-imidazo[4,5-c]quinolin-8-yl]-benzamide]",92.7 nM
7,"CNc1cncc(-c2ccc3ncc4c(c3c2)n(-c2cccnc2C)c(=O)n4C)c1 [Example 2.26, 3-Methyl-8-(5-methylamino-pyridin-3-yl)-1-(2-methyl-pyridin-3-yl)-1,3-dihydro-imidazo[4,5-c]quinolin-2-one]",6.4 nM
8,"Cc1cccnc1-n1c(=O)n(C)c2cnc3ccc(-c4ccc(CO)nc4)cc3c21 [Example 3.9, 8-(6-Hydroxymethyl-pyridin-3-yl)-3-methyl-1-(3-methyl-pyridin-2-yl)-1,3-dihydro-imidazo[4,5-c]quinolin-2-one]",301 nM
9,"Cc1ccncc1-n1c(=O)n(C)c2cnc3ccc(-c4ccc(CO)nc4)cc3c21 [Example 4.1, 8-(6-Hydroxymethyl-pyridin-3-yl)-3-methyl-1-(4-methyl-pyridin-3-yl)-1,3-dihydro-imidazo[4,5-c]quinolin-2-one]",542 nM
10,"Cc1ncccc1-n1c(=O)n(C)c2cnc3ccc(-c4ccc(C(N)=O)cc4)cc3c21 [Example 2.3, 4-[3-Methyl-1-(2-methyl-pyridin-3-yl)-2-oxo-2,3-dihydro-1H-imidazo[4,5-c]quinolin-8-yl]-benzamide]",21 nM
11,"CCOc1ccc(-c2ccc3ncc4c(c3c2)n(-c2ccc(F)nc2C)c(=O)n4C)cn1 [Example 7.3, 8-(6-Ethoxy-pyridin-3-yl)-1-(6-fluoro-2-methyl-pyridin-3-yl)-3-methyl-1,3-dihydro-imidazo[4,5-c]quinolin-2-one]",42.2 nM
12,"CCOc1cc(-c2ccc3ncc4c(c3c2)n(-c2cccnc2C)c(=O)n4C)cnc1COC [Example 2.28, 8-(5-Ethoxy-6-methoxymethyl-pyridin-3-yl)-3-methyl-1-(2-methyl-pyridin-3-yl)-1,3-dihydro-imidazo[4,5-c]quinolin-2-one]",23.7 nM
13,"Cc1ncccc1-n1c(=O)n(C)c2cnc3ccc(-c4ccc(OCCCN(C)C)nc4)cc3c21 [Example 2.10, 8-[6-(3-Dimethylamino-propoxy)-pyridin-3-yl]-3-methyl-1-(2-methyl-pyridin-3-yl)-1,3-dihydro-imidazo[4,5-c]quinolin-2-one]",114 nM
14,"CNc1ncc(-c2ccc3ncc4c(c3c2)n(-c2ncccc2C)c(=O)n4C)cn1 [Example 3.4, 3-Methyl-8-(2-methylamino-pyrimidin-5-yl)-1-(3-methyl-pyridin-2-yl)-1,3-dihydro-imidazo[4,5-c]quinolin-2-one]",226 nM

# The next lines start with the values.
row,IC50,Structure (SMILES)
1,17 nM,"COc1ncc(-c2ccc3ncc4c(c3c2)n(-c2ccc(N3CC(O)C3)nc2C)c(=O)n4C)c(OC)n1 [Example 29.6, 8-(2,4-Dimethoxy-pyrimidin-5-yl)-1-[6-(3-hydroxy-azetidin-1-yl)-2-methyl-pyridin-3-yl]-3-methyl-1,3-dihydro-imidazo[4,5-c]quinolin-2-one]"
2,37.1 nM,"COCc1ncc(-c2ccc3ncc4c(c3c2)n(-c2ccc(N3CCC3)nc2C)c(=O)n4C)cc1OC [Example 23.6, 1-(6-Azetidin-1-yl-2-methyl-pyridin-3-yl)-8-(5-methoxy-6-methoxymethyl-pyridin-3-yl)-3-methyl-1,3-dihydro-imidazo[4,5-c]quinolin-2-one]"
3,24.8 nM,"COCc1ncc(-c2ccc3ncc4c(c3c2)n(-c2ccc(N3CCC3)nc2C)c(=O)n4C)cc1OC(C)C [Example 23.2, 1-(6-Azetidin-1-yl-2-methyl-pyridin-3-yl)-8-(5-isopropoxy-6-methoxymethyl-pyridin-3-yl)-3-methyl-1,3-dihydro-imidazo[4,5-c]quinolin-2-one]"
4,26.2 nM,"Cc1nc(N2CCC2)ccc1-n1c(=O)n(C)c2cnc3ccc(-c4cncc(OC(C)C)c4)cc3c21 [Example 23.9, 1-(6-Azetidin-1-yl-2-methyl-pyridin-3-yl)-8-(5-isopropoxy-pyridin-3-yl)-3-methyl-1,3-dihydro-imidazo[4,5-c]quinolin-2-one]"
5,21.1 nM,"Cc1nc(N2CCC2)ccc1-n1c(=O)n(C)c2cnc3ccc(-c4cncc(N5CCC5)c4)cc3c21 [Example 23.1, 1-(6-Azetidin-1-yl-2-methyl-pyridin-3-yl)-8-(5-azetidin-1-yl-pyridin-3-yl)-3-methyl-1,3-dihydro-imidazo[4,5-c]quinolin-2-one]"
6,45 nM,"COc1ncc(-c2ccc3ncc4c(c3c2)n(-c2ccc(N3CC[C@H](O)C3)nc2C)c(=O)n4C)c(OC)n1 [Example 32.3, 8-(2,4-Dimethoxy-pyrimidin-5-yl)-1-[6-((S)-3-hydroxy-pyrrolidin-1-yl)-2-methyl-pyridin-3-yl]-3-methyl-1,3-dihydro-imidazo[4,5-c]quinolin-2-one]"
7,5.1 nM,"CNc1ncc(-c2ccc3ncc4c(c3c2)n(-c2ccc(N(C)CCO)nc2C)c(=O)n4C)cn1 [Example 26.2, 1-{6-[(2-Hydroxy-ethyl)-methyl-amino]-2-methyl-pyridin-3-yl}-3-methyl-8-(2-methylamino-pyrimidin-5-yl)-1,3-dihydro-imidazo[4,5-c]quinolin-2-one]"
8,14 nM,"CCNc1cc(-c2ccc3ncc4c(c3c2)n(-c2ccc(N3CC(O)C3)nc2C)c(=O)n4C)cnc1CO [Example 29.2, 8-(5-Ethylamino-6-hydroxymethyl-pyridin-3-yl)-1-[6-(3-hydroxy-azetidin-1-yl)-2-methyl-pyridin-3-yl]-3-methyl-1,3-dihydro-imidazo[4,5-c]quinolin-2-one]"
9,11.3 nM,"CNc1ncc(-c2ccc3ncc4c(c3c2)n(-c2ccc(N3CCC(O)C3)nc2C)c(=O)n4C)cn1 (centres unmarked) [Example 27.2, 1-[6-(3-Hydroxy-pyrrolidin-1-yl)-2-methyl-pyridin-3-yl]-3-methyl-8-(2-methylamino-pyrimidin-5-yl)-1,3-dihydro-imidazo[4,5-c]quinolin-2-one]"

# — patent US20100311714A1, “1H-IMIDAZO[4,5-c]QUINOLINONE COMPOUNDS” (priority 2009, published 2010)
